This note sets out measurements from US20260055097A9, “NRF2 PROTEIN DEGRADERS” (Ganymede Oncology, Inc., priority 2022, published 2026).

Format in all cases: cell-based
For experiment [1], the target named is T1, Nrf2 (Homo sapiens, UniProt Q16236).
T1 sequence (Q16236 1-605): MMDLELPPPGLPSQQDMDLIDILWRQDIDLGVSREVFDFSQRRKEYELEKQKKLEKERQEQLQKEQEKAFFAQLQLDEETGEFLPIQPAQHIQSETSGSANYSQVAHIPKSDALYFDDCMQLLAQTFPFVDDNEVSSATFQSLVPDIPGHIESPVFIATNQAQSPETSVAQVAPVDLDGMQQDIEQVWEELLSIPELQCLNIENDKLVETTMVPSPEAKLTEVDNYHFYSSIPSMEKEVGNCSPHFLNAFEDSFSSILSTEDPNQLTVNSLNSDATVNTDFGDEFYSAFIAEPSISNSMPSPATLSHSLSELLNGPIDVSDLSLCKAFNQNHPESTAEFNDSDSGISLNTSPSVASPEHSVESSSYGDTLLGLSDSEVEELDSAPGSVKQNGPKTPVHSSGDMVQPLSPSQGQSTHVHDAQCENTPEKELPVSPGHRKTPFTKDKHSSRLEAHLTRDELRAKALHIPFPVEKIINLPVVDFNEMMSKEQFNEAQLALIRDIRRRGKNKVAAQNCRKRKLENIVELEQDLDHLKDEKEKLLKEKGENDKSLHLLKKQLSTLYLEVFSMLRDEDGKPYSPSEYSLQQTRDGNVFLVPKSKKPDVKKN
In words: Protein degradation assay in huH1 cells by Western blot. Details: tested for protein degradation in huH1 cells; host or cells: huH1 (Huh1) human hepatoma cells. The note with it: X marks the class >10 μM, read-out: DC50 huHI1 cells >10 μM. On the procedure: Representative Compounds of the Disclosure were tested for protein degradation in huH1 cells (Vendor: JCRB: Cat #JCRB0199; Description: Human hepatoma) by Western blot analysis according to the following general protocol.
Day 0: Plated the Huh1 cells into 10-cm dishes (1.5×10^6/dish)
Day 1: Treated the cells with compounds at five concentrations, e.g., 0.01 μM, 0.04 μM, 0.11 μM, 0.33 μM and 1 μM; or 0.4 μM, 1.1 μM, 3.3 μM, 10 μM, and 30 μM.
Day 4: Harvested the cell pellets, spilt 1/3 of the pellet to extract RNA by Nucleospin RNA plus kit and measure Nrf2 and GPX2 by RT-PCR, the remaining 2/3 of the pellet to run Western blot analysis.
• a) Cell samples were lysed with lysis buffer (1×Cell lysis buffer added Protease inhibitor and phosphatase inhibitor) on ice for 5˜10 min and spun at 15,000 rpm in an Eppendorf microfuge for 15 min at 4° C. • b) The protein supernatant was collected in a new 1.5 ml tube and the protein concentrations were determined by the Pierce BCA kit (Thermo #23225). • c) Mixed protein sample with 5×SDS-PAGE loading buffer. • d) Boiled for 5 min. • e) Cooled at RT or on ice for 5 min. • f) Flash spun to bring down condensation prior to loading gel.
• a) After flash spinning the samples, 20 μg protein were loaded into the wells. • b) Using SDS-PAGE running buffer. • c) Run with Constant Voltage (70 V) for 1.5-2 hr. Membrane transfer • a) Assembled “sandwich” for Invitrogen iBlot. • b) Transferred for 9 min using P0 program. • c) Immersed membrane in Odyssey blocking buffer or 5% BSA for at least 1 hr.
• a) Incubated with 1st Antibody 1:500 diluted in blocking buffer overnight at 4° C. • b) Washed 4×15 min with 0.05-0.1% Tween 20 in TBS. • c) Incubated with secondary antibody 1:10K diluted in blocking buffer for at least 1 hr at RT. • d) Washed 3×15 min with 0.05-0.1% Tween 20 in TBS. • e) Detected with ODYSSEY (Li—COR) The results are provided in Table 5.
On the technique in general: In western blotting, separated proteins are transferred to a membrane and probed.

The subject of a further experiment is A549. In words: Cancer cell viability, A549 (CellTiter-Glo). As to conditions: Homo sapiens, 72 h, A549 cells, 3 days, read-out: Cellular IC50 (μM) A549. In short, it runs like this:
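A549 and/or LK-2 lung carcinoma cells seeded overnight (20 K/mL A549; 35 K/mL LK-2), then exposed to compound for 3 days. Viability read as CellTiter-Glo luminescence after 15 min lysis; data fitted to curves.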
(In general: In ATP-based viability assays light output follows the ATP content of the culture.)

The next experiment concerns LK-2. In words: Cancer cell viability, LK-2 (CellTiter-Glo). As to conditions: LK-2 cells, 3 days, read-out: Cellular IC50 (μM) LK-2. How it is done: Representative Compounds of the Disclosure were tested in A549 (Vendor: ATCC; Cat #CCL-185; Description: lung, carcinoma) and/or LK-2 (Vendor: Riken; Cat #RCB1970; Description: lung, squamous cell carcinoma) cellular viability assays according to the following general protocol. • 1. Observed the cells under microscope. • 2. Aspirated the media and added 5 mL trypsin and incubate for 3 mins. • 3. Added 10 mL fresh media and harvested all the cells in to 15 mL tubes. • 4. Centrifuged the cells at 1000 rpm for 5 mins. • 5. Re-suspended the cells with 11 mL media and took 1 mL to determine the cell number and viability. • 6. Prepared cells suspension at 20 K/mL (A549) or 35 K/mL (LK-2) • 7. Seeded the cells into 96-well plate and incubated for overnight. • 8. Added compounds into each well with a HPD300 machine (nine three-fold dilutions typically starting at 30 µM final concentration) and incubated for 3 days. • 9. After 3 days, took out the plates from the incubator and observed the cells under microscope. • 10. Passed a film at the bottom of the plates. • 11. Equilibrated the plate and its contents at room temperature for approximately 30 minutes. • 12. Thawed the CellTiter-Glo® Buffer and equilibrated to room temperature prior to use. • 13. Equilibrated the lyophilized CellTiter-Glo® Substrate to room temperature prior to use. • 14. Transferred 100 ml of CellTiter-Glo® Buffer into the amber bottle containing CellTiter-Glo® Substrate to reconstituted the lyophilized enzyme/substrate mixture. • 15. Mixed by gently vortexing, swirling or inverting the contents to obtain a homogeneous solution. • 16. Added 100 μL CellTiter-Glo® Reagent into each well • 17. Mixed contents for 15 minutes on an orbital shaker to induce cell lysis. • 18. Recorded luminescence with EnSpire machine. • 19. Passed the raw data into the file and analyzed the data with XLfit software.

Experiment [2] addresses T1, Nrf2. In words: Nrf2 degradation in A549 HiBiT-Nrf2 cells, Nano-Glo HiBiT lytic detection (HiBiT readout). Also noted: host or cells: A549 HiBiT-Nrf2 cells (engineered line bought from Promega). A digest of the protocol: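 A549 HiBiT-Nrf2 cells seeded at 5,000 cells/well in Ham's F-12 with 10% FBS, then treated next day for 6 h and 20 h at 37 °C, 5% CO2. Nrf2 degradation read by Nano-Glo HiBiT lytic luminescence after 30 min at room temperature; staurosporine served as control.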

The mark [3] stands for this setting: 6 h, read-out: DC50 (nM) at 6 h.
[4] abbreviates: 20 h, read-out: DC50 (nM) at 20 h.

Where two headings read alike, the source gives them in different places.

A word on the DC50: it is the concentration at which degradation of the target reaches its halfway point. With `Cc1ccccc1C(=O)N1CCc2cc(-c3nc(NC(=O)Cc4cccc(OCCOCCOCCOCCNc5cccc6c5C(=O)N(C5CCC(=O)NC5=O)C6=O)c4)sc3C)ccc21` (stereo not shown) [Cpd. No. 3, 2-(3-(2-(2-(2-(2-((2-(2,6-dioxopiperidin-3-yl)-1,3-dioxoisoindolin-4-yl)amino)ethoxy)ethoxy)ethoxy)ethoxy)phenyl)-N-(5-methyl-4-(1-(2-methylbenzoyl)indolin-5-yl)thiazol-2-yl)acetamide], the DC50 at Nrf2 [1] is greater than 10000 nM.
The same measure, in the same setting: the figure for `Cc1ccccc1C(=O)N1CCc2cc(-c3nc(NC(=O)Cc4cccc(OCCOCCOCCOCCOCCNc5cccc6c5C(=O)N(C5CCC(=O)NC5=O)C6=O)c4)sc3C)ccc21` (stereo not shown) [Cpd. No. 4, 2-(3-((14-((2-(2,6-dioxopiperidin-3-yl)-1,3-dioxoisoindolin-4-yl)amino)-3,6,9,12-tetraoxatetradecyl)oxy)phenyl)-N-(5-methyl-4-(1-(2-methylbenzoyl)indolin-5-yl)thiazol-2-yl)acetamide] is greater than 10000 nM.
For orientation: IC50 means the concentration at which inhibition is half-maximal. In the case of `Cc1sc(NC(=O)Cc2ccc(F)c(OCCOCCNc3ccc4c(c3)CN(C3CCC(=O)NC3=O)C4=O)c2)nc1-c1ccc2c(c1)CCN2C(=O)C1CC1` (stereo not shown) [Cpd. No. 28, N-(4-(1-(cyclopropanecarbonyl)indolin-5-yl)-5-methylthiazol-2-yl)-2-(3-(2-(2-((2-(2,6-dioxopiperidin-3-yl)-1-oxoisoindolin-5-yl)amino)ethoxy)ethoxy)-4-fluorophenyl)acetamide], the IC50 came to 0.03 µM with A549 and 0.01 µM with LK-2 (Homo sapiens, LK-2, 72 h). Moreover, the half-maximal degradation concentration (DC50) at Nrf2 [2] (setting [3]) and on Nrf2 [2] (setting [4]) was less than 300 nM each time.
`Cc1sc(NC(=O)Cc2ccc(F)c(OCCOCCNc3ccc4c(c3)C(=O)N(C3CCC(=O)NC3=O)C4=O)c2)nc1-c1ccc2c(c1)CCN2C(=O)c1cncn1C` (stereo not shown) [Cpd. No. 29, 2-(3-(2-(2-((2-(2,6-dioxopiperidin-3-yl)-1,3-dioxoisoindolin-5-yl)amino)ethoxy)ethoxy)-4-fluorophenyl)-N-(5-methyl-4-(1-(1-methyl-1H-imidazole-5-carbonyl)indolin-5-yl)thiazol-2-yl)acetamide]: the half-inhibitory concentration (IC50) in the experiment with A549 was determined as 0.05 µM; with LK-2 (Homo sapiens, LK-2, 72 h), 0.01 µM; in the experiment on LK-2, 0.02 µM. In addition, the DC50 at Nrf2 [2] (setting [3]) and on Nrf2 [2] (setting [4]) was less than 300 nM each time.
As for `Cc1ccccc1C(=O)N1CCc2cc(-c3nc(NC(=O)Cc4cccc(OCCN5CCN(c6cccc7c6C(=O)N(C6CCC(=O)NC6=O)C7=O)CC5)c4)sc3C)ccc21` (stereo not shown) [Cpd. No. 31, 2-(3-(2-(4-(2-(2,6-dioxopiperidin-3-yl)-1,3-dioxoisoindolin-4-yl)piperazin-1-yl)ethoxy)phenyl)-N-(5-methyl-4-(1-(2-methylbenzoyl)indolin-5-yl)thiazol-2-yl)acetamide], the concentration for half-maximal inhibition (IC50) in the experiment with A549 is greater than 30 µM; with LK-2 (Homo sapiens, LK-2, 72 h) it was greater than 30 µM. The half-maximal degradation concentration (DC50) at Nrf2 [2] (setting [3]) and at Nrf2 [2] (setting [4]) was greater than 3000 nM throughout.
As for `Cc1sc(NC(=O)Cc2cccc(OCCOCCNc3cccc4c3C(=O)N(C3CCC(=O)NC3=O)C4=O)c2)nc1-c1ccc2c(c1)CCN2C(=O)c1cncn1C` (stereo not shown) [Cpd. No. 35, 2-(3-(2-(2-((2-(2,6-dioxopiperidin-3-yl)-1,3-dioxoisoindolin-4-yl)amino)ethoxy)ethoxy)phenyl)-N-(5-methyl-4-(1-(1-methyl-1H-imidazole-5-carbonyl)indolin-5-yl)thiazol-2-yl)acetamide], the IC50 stood at 0.03 µM in the experiment on A549 and 0.01 µM in the experiment with LK-2 (Homo sapiens, LK-2, 72 h). Moreover, the DC50 on Nrf2 [2] (setting [3]) was less than 300 nM; at Nrf2 [2] (setting [4]), greater than 3000 nM.
Consider `Cc1sc(NC(=O)Cc2ccc(F)c(OCCOCCNc3cccc4c3C(=O)N(C3CCC(=O)NC3=O)C4=O)c2)nc1-c1ccc2c(c1)CCN2C(=O)C1CC1` (stereo not shown) [Cpd. No. 36, N-(4-(1-(cyclopropanecarbonyl)indolin-5-yl)-5-methylthiazol-2-yl)-2-(3-(2-(2-((2-(2,6-dioxopiperidin-3-yl)-1,3-dioxoisoindolin-4-yl)amino)ethoxy)ethoxy)-4-fluorophenyl)acetamide], for which the IC50 in the experiment with A549 came out at 0.06 µM; in the experiment with LK-2 (Homo sapiens, LK-2, 72 h) it was 0.03 µM. Besides, the DC50 at Nrf2 [2] (setting [3]) and on Nrf2 [2] (setting [4]) was less than 300 nM throughout.
For the compound `Cc1sc(NC(=O)Cc2ccc(F)c(OCCOCCNc3cccc4c3C(=O)N(C3CCC(=O)NC3=O)C4=O)c2)nc1-c1ccc2c(c1)CCN2C(=O)c1cncn1C` (stereo not shown) [Cpd. No. 37, 2-(3-(2-(2-((2-(2,6-dioxopiperidin-3-yl)-1,3-dioxoisoindolin-4-yl)amino)ethoxy)ethoxy)-4-fluorophenyl)-N-(5-methyl-4-(1-(1-methyl-1H-imidazole-5-carbonyl)indolin-5-yl)thiazol-2-yl)acetamide], the half-inhibitory concentration (IC50) in the experiment with A549 amounted to 0.04 µM; in the experiment on LK-2 (Homo sapiens, LK-2, 72 h), 0.01 µM. Also, the half-maximal degradation concentration (DC50) at Nrf2 [2] (setting [3]) and on Nrf2 [2] (setting [4]) was less than 300 nM in each case.
Turning to `Cc1sc(NC(=O)Cc2cccc(OCCCCCNc3cccc4c3C(=O)N(C3CCC(=O)NC3=O)C4=O)c2)nc1-c1ccc2c(c1)CCN2C(=O)C1CC1` (stereo not shown) [Cpd. No. 40, N-(4-(1-(cyclopropanecarbonyl)indolin-5-yl)-5-methylthiazol-2-yl)-2-(3-((5-((2-(2,6-dioxopiperidin-3-yl)-1,3-dioxoisoindolin-4-yl)amino)pentyl)oxy)phenyl)acetamide], the IC50 in the experiment with A549 was 0.11 µM; in the experiment on LK-2 (Homo sapiens, LK-2, 72 h) it was 0.08 µM. For the same compound, the DC50 at Nrf2 [2] (setting [3]) and at Nrf2 [2] (setting [4]) was less than 300 nM throughout.
